Among the data in patent US20110195900A1, “PEPTIDIC PTH RECEPTOR AGONISTS” (FERRING B.V., priority 2008, published 2011) are hPTHR-2/hPTHR-1 and EC50 values, retold here.

The target of the assay is T1, human PTH-1 receptor (Homo sapiens, UniProt Q03431).
T1 construct: expressed in transfected cells; host or cells: HEK-293
T1 sequence (Q03431 27-593): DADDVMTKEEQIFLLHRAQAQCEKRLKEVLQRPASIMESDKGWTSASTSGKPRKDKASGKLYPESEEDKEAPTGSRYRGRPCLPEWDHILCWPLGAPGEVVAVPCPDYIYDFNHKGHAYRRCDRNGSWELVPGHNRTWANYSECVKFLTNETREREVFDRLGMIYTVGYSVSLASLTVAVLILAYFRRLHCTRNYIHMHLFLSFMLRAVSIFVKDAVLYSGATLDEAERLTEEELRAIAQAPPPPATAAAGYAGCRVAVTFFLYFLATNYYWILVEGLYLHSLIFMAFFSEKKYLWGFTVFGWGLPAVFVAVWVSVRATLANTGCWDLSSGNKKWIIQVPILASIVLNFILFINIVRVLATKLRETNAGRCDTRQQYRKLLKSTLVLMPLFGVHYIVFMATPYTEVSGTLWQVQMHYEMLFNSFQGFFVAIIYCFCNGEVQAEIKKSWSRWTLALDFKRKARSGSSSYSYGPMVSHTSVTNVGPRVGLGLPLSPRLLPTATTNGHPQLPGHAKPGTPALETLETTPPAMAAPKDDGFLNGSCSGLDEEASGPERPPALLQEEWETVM
The assay is described as follows: Reporter gene assay (CRE-luciferase) for agonist activity in transiently transfected HEK-293 cells. The format is cell-based. The following applies: for hPTHR-2/hPTHR-1: Table 3, ratio of EC50 values, selectivity for hPTH-1 receptor over hPTH-2 receptor. As to the method:
Agonist activity of compounds on the human PTH-1 receptor was determined in a reporter gene assay by transiently transfecting HEK-293 cells with plasmids encoding human PTH-1 receptor under control of the SV40 promoter and a luciferase reporter gene under control of cAMP responsive elements (CRE). See Himmler et al, J. Recept. Res. 13 (1993) 79-94, for further guidance on this assay. Transfected cells were exposed to serial dilutions of compounds for 4-5 hours followed by lysis of cells, determination of luciferase activity, and determination of compound efficacies and EC50 values through non-linear regression.
PTH (1-34) was used as an internal control in each experiment and compounds were tested in at least three independent experiments. To determine selectivity, compounds were tested in luciferase-based transcriptional reporter gene assays expressing the human PTH-2 receptor.
For orientation: A reporter such as luciferase makes a cellular process visible.

Non-standard residues stand in square brackets, D forms with d. Residues, ends and D or L forms follow the SMILES beside them. 1Nal = N[C@@H](Cc1cccc2ccccc12)C(=O)O; β3hI = CC[C@H](C)[C@H](N)CC(=O)O; β3hE = N[C@@H](CCC(=O)O)CC(=O)O; hSer = N[C@@H](CCO)C(=O)O; Nle = CCCC[C@H](N)C(=O)O; βAla = NCCC(=O)O

`CCCC[C@H](NC(=O)CCNC(=O)[C@H](CC(N)=O)NC(=O)[C@H](CC(C)C)NC(=O)[C@H](Cc1c[nH]cn1)NC(=O)[C@H](CCCCN)NC(=O)CNC(=O)[C@H](CC(C)C)NC(=O)[C@H](CC(N)=O)NC(=O)[C@H](Cc1c[nH]cn1)NC(=O)[C@H](CCCC)NC(=O)[C@H](CC(C)C)NC(=O)[C@H](CCC(N)=O)NC(=O)[C@@H](NC(=O)[C@H](CCC(=O)O)NC(=O)[C@H](CO)NC(=O)[C@@H](NC(=O)[C@H](C)N)C(C)C)[C@@H](C)CC)C(=O)N[C@@H](CCC(=O)O)C(=O)N[C@@H](CCCNC(=N)N)C(=O)N[C@H](C(=O)N[C@@H](CCC(=O)O)C(=O)N[C@@H](Cc1cccc2ccccc12)C(=O)N[C@@H](CC(C)C)C(=O)N[C@@H](CCCNC(=N)N)C(=O)N[C@@H](CCCCN)C(=O)N[C@@H](CC(C)C)C(=O)N[C@@H](CC(C)C)C(=O)N[C@@H](CCC(N)=O)C(=O)N[C@@H](CC(=O)O)C(=O)N[C@H](C(=O)N[C@@H](Cc1c[nH]cn1)C(=O)N[C@@H](CC(N)=O)C(=O)N[C@@H](Cc1ccccc1)C(N)=O)C(C)C)C(C)C` [SEQ ID NO: 14, [Ala^1, Nle^8,18, β-Ala^17,1-Nal^23, Leu^27] hPTH (1-34)-NH2] (H-AVSEIQL[Nle]HNLGKHLN[βAla][Nle]ERVE[1Nal]LRKLLQDVHNF-NH2; N-terminus assumed): the hPTHR-2/hPTHR-1 is recorded as 449.

As a reminder, the EC50 is the concentration giving half of the maximal effect. Lower therefore signals higher potency in that assay. Regarding `CCCC[C@H](NC(=O)CCNC(=O)[C@H](CC(N)=O)NC(=O)[C@H](CC(C)C)NC(=O)[C@H](Cc1c[nH]cn1)NC(=O)[C@H](CCCCN)NC(=O)CNC(=O)[C@H](CC(C)C)NC(=O)[C@H](CC(N)=O)NC(=O)[C@H](Cc1c[nH]cn1)NC(=O)[C@H](CCCC)NC(=O)[C@H](CC(C)C)NC(=O)[C@H](CCC(N)=O)NC(=O)[C@@H](NC(=O)[C@H](CCC(=O)O)NC(=O)[C@H](CO)NC(=O)[C@@H](NC(=O)[C@@H](N)CO)C(C)C)[C@@H](C)CC)C(=O)N[C@@H](CCC(=O)O)C(=O)N[C@@H](CCCNC(=N)N)C(=O)N[C@H](C(=O)N[C@@H](CCC(=O)O)C(=O)N[C@@H](Cc1cccc2ccccc12)C(=O)N[C@@H](CC(C)C)C(=O)N[C@@H](CCCNC(=N)N)C(=O)N[C@@H](CCCCN)C(=O)N[C@@H](CC(C)C)C(=O)N[C@@H](CC(C)C)C(=O)N[C@@H](CCC(N)=O)C(=O)N[C@@H](CC(=O)O)C(=O)N[C@H](C(=O)N[C@@H](Cc1c[nH]cn1)C(=O)N[C@@H](CC(N)=O)C(=O)N[C@@H](Cc1ccccc1)C(N)=O)C(C)C)C(C)C` [SEQ ID NO: 15, [Nle^8,18, β-Ala^17,1-Nal^23, Leu^27] hPTH (1-34)-NH2] (H-SVSEIQL[Nle]HNLGKHLN[βAla][Nle]ERVE[1Nal]LRKLLQDVHNF-NH2), the half-maximal effective concentration (EC50) was 120 pM and the hPTHR-2/hPTHR-1 is on record as 389.

`CCCC[C@H](NC(=O)[C@H](CC(C)C)NC(=O)[C@H](CCC(N)=O)NC(=O)[C@@H](NC(=O)[C@H](CCC(=O)O)NC(=O)[C@H](CO)NC(=O)[C@@H](NC(=O)[C@@H](N)CO)C(C)C)[C@@H](C)CC)C(=O)N[C@@H](Cc1c[nH]cn1)C(=O)N[C@@H](CC(N)=O)C(=O)N[C@@H](CC(C)C)C(=O)NCC(=O)N[C@@H](CCCCN)C(=O)N[C@@H](Cc1c[nH]cn1)C(=O)N[C@@H](CC(C)C)C(=O)N[C@@H](CC(N)=O)C(=O)NCCC(=O)N[C@@H](CCOC)C(=O)N[C@@H](CCC(=O)O)C(=O)N[C@@H](CCCNC(=N)N)C(=O)N[C@H](C(=O)N[C@@H](CCC(=O)O)C(=O)N[C@@H](Cc1cccc2ccccc12)C(=O)N[C@@H](CC(C)C)C(=O)N[C@@H](CCCNC(=N)N)C(=O)N[C@@H](CCCCN)C(=O)N[C@@H](CC(C)C)C(=O)N[C@@H](CC(C)C)C(=O)N[C@@H](CCC(N)=O)C(=O)N[C@@H](CC(=O)O)C(=O)N[C@H](C(=O)N[C@@H](Cc1c[nH]cn1)C(=O)N[C@@H](CC(N)=O)C(=O)N[C@@H](Cc1ccccc1)C(N)=O)C(C)C)C(C)C` [SEQ ID NO: 16, [Nle^8, β-Ala^17, hSer(OMe)^18,1-Nal^23, Leu^27] hPTH (1-34)-NH2] (H-SVSEIQL[Nle]HNLGKHLN[βAla][hSer](Me)ERVE[1Nal]LRKLLQDVHNF-NH2): the EC50 was 130 pM and the hPTHR-2/hPTHR-1 was found to be 719.

On to `CCCC[C@H](NC(=O)[C@H](CO)NC(=O)[C@H](CC(N)=O)NC(=O)[C@H](CC(C)C)NC(=O)[C@H](Cc1c[nH]cn1)NC(=O)[C@H](CCCCN)NC(=O)CNC(=O)[C@H](CC(C)C)NC(=O)[C@H](CC(N)=O)NC(=O)[C@H](Cc1c[nH]cn1)NC(=O)[C@H](CCCC)NC(=O)[C@H](CC(C)C)NC(=O)[C@H](CCC(N)=O)NC(=O)[C@@H](NC(=O)[C@H](CCC(=O)O)NC(=O)[C@H](CO)NC(=O)[C@@H](NC(=O)[C@@H](N)CO)C(C)C)[C@@H](C)CC)C(=O)N[C@@H](CCC(=O)O)CC(=O)N[C@@H](CCCNC(=N)N)C(=O)N[C@H](C(=O)N[C@@H](CCC(=O)O)C(=O)N[C@@H](Cc1cccc2ccccc12)C(=O)N[C@@H](CC(C)C)C(=O)N[C@@H](CCCNC(=N)N)C(=O)N[C@@H](CCCCN)C(=O)N[C@@H](CC(C)C)C(=O)N[C@@H](CC(C)C)C(=O)N[C@@H](CCC(N)=O)C(=O)N[C@@H](CC(=O)O)C(=O)N[C@H](C(=O)N[C@@H](Cc1c[nH]cn1)C(=O)N[C@@H](CC(N)=O)C(=O)N[C@@H](Cc1ccccc1)C(N)=O)C(C)C)C(C)C` [SEQ ID NO: 20, [Nle^8,18, β-hGlu^19,1-Nal^23, Leu^27] hPTH (1-34)-NH2] (H-SVSEIQL[Nle]HNLGKHLNS[Nle][β3hE]RVE[1Nal]LRKLLQDVHNF-NH2; N-terminus assumed), for which the hPTHR-2/hPTHR-1 came out at 91.

Take `CCCC[C@H](NC(=O)[C@H](CC(C)C)NC(=O)[C@H](CCC(N)=O)NC(=O)[C@@H](NC(=O)[C@H](CCC(=O)O)NC(=O)[C@H](CO)NC(=O)[C@@H](NC(=O)[C@@H](N)CO)C(C)C)[C@@H](C)CC)C(=O)N[C@@H](Cc1c[nH]cn1)C(=O)N[C@@H](CC(N)=O)C(=O)N[C@@H](CC(C)C)C(=O)NCC(=O)N[C@@H](CCCCN)C(=O)N[C@@H](Cc1c[nH]cn1)C(=O)N[C@@H](CC(C)C)C(=O)N[C@@H](CCC(=O)O)C(=O)N[C@@H](CO)C(=O)N[C@H](CC(=O)N[C@@H](CCC(=O)O)C(=O)N[C@@H](CCCNC(=N)N)C(=O)N[C@H](C(=O)N[C@@H](CCC(=O)O)C(=O)N[C@@H](Cc1cccc2ccccc12)C(=O)N[C@@H](CC(C)C)C(=O)N[C@@H](CCCNC(=N)N)C(=O)N[C@@H](CCCCN)C(=O)N[C@@H](CC(C)C)C(=O)N[C@@H](CC(C)C)C(=O)N[C@@H](CCC(N)=O)C(=O)N[C@@H](CC(=O)O)C(=O)N[C@H](C(=O)N[C@@H](Cc1c[nH]cn1)C(=O)N[C@@H](CC(N)=O)C(=O)N[C@@H](Cc1ccccc1)C(N)=O)C(C)C)C(C)C)[C@@H](C)CC` [SEQ ID NO: 21, [Nle^8, Glu^16, β-hIle^18,1-Nal^23, Leu^27] hPTH (1-34)-NH2] (H-SVSEIQL[Nle]HNLGKHLES[β3hI]ERVE[1Nal]LRKLLQDVHNF-NH2): the hPTHR-2/hPTHR-1 is reported as 234.

In the case of `CCCC[C@H](NC(=O)[C@H](CC(C)C)NC(=O)[C@H](CCC(N)=O)NC(=O)[C@@H](NC(=O)[C@H](CCC(=O)O)NC(=O)[C@H](CO)NC(=O)[C@@H](NC(=O)[C@@H](N)CO)C(C)C)[C@@H](C)CC)C(=O)N[C@@H](Cc1c[nH]cn1)C(=O)N[C@@H](CC(N)=O)C(=O)N[C@@H](CC(C)C)C(=O)NCC(=O)N[C@@H](CCCCN)C(=O)N[C@@H](Cc1c[nH]cn1)C(=O)N[C@@H](CC(C)C)C(=O)N[C@@H](CO)C(=O)N[C@@H](CO)C(=O)N[C@H](CC(=O)N[C@@H](CCC(=O)O)C(=O)N[C@@H](CCCNC(=N)N)C(=O)N[C@H](C(=O)N[C@@H](CCC(=O)O)C(=O)N[C@@H](Cc1cccc2ccccc12)C(=O)N[C@@H](CC(C)C)C(=O)N[C@@H](CCCNC(=N)N)C(=O)N[C@@H](CCCCN)C(=O)N[C@@H](CC(C)C)C(=O)N[C@@H](CC(C)C)C(=O)N[C@@H](CCC(N)=O)C(=O)N[C@@H](CC(=O)O)C(=O)N[C@H](C(=O)N[C@@H](Cc1c[nH]cn1)C(=O)N[C@@H](CC(N)=O)C(=O)N[C@@H](Cc1ccccc1)C(N)=O)C(C)C)C(C)C)[C@@H](C)CC` [SEQ ID NO: 22, [Nle^8, Ser^16, β-hIle^18,1-Nal^23, Leu^27] hPTH (1-34)-NH2] (H-SVSEIQL[Nle]HNLGKHLSS[β3hI]ERVE[1Nal]LRKLLQDVHNF-NH2), the EC50 came to 190 pM and the hPTHR-2/hPTHR-1 is on record as 101.
